Assay results published in patent publication US7777000B2, “Anti-viral activity of cathelicidin peptides” (priority 2003, dated 2010).
Where “and” joins values, the source holds several entries; their conditions need not be identical. Equal entries are not always repeated. Entries after “also recorded” stand apart in the source; their conditions may differ. Where no end group is shown, it is not given here.

Experiments:
E. coli ML35p = assay: Minimum bactericidal concentration / antimicrobial activity against E. coli ML35p; type: cell-based; settings: for Minimum Bactericidal Concentration: mean of three independent experiments
vaccinia virions (IMV) = tested on: vaccinia virions (IMV); set-up: species or system vaccinia virus (Wyeth strain); settings: for alteration of virion structure: 25 μM
vaccinia virus [1] = type: cell-based, vaccinia virus (Wyeth strain)
vaccinia virus [2] = type: cell-based, vaccinia virus (Wyeth strain); remark: listed apart in the source

Compound | antimicrobial activity against E. coli ML35p (E. coli ML35p) | Altered virions (%) (vaccinia virions (IMV)) | Altered virions/virion number (vaccinia virions (IMV)) | amount of viral mRNA in the tissue culture cells (vaccinia virus [1]) | contact time with vaccinia required to detect antiviral activity (vaccinia virus [2]) | effective antiviral concentration relative to that required for killing of S. aureus (vaccinia virus [2]) | lowest concentration with significant reduction in viral replication (vaccinia virus [2]) | inhibition of vaccinia virus replication (plaque-forming units) (vaccinia virus [2]) | effect on the structure of the IMV (electron microscopy) (vaccinia virions (IMV)) | alteration of virion structure (vaccinia virions (IMV)) | Minimum Bactericidal Concentration (E. coli ML35p) | inhibition of vaccinia virus replication at concentrations as high as 50 μM (vaccinia virus [2]) | Minimum Bactericidal Concentration (E. coli ML35p; listed as HNP)
CC[C@H](C)[C@H](NC(=O)[C@H](CCCCN)NC(=O)[C@H](CCC(=O)O)NC(=O)[C@H](CCCCN)NC(=O)[C@H](CO)NC(=O)[C@H](CCCCN)NC(=O)[C@H](CCCNC(=N)N)NC(=O)[C@H](Cc1ccccc1)NC(=O)[C@H](Cc1ccccc1)NC(=O)[C@H](CC(=O)O)NC(=O)CNC(=O)[C@H](CC(C)C)NC(=O)[C@@H](N)CC(C)C)C(=O)NCC(=O)N[C@@H](CCCCN)C(=O)N[C@@H](CCC(=O)O)C(=O)N[C@@H](Cc1ccccc1)C(=O)N[C@@H](CCCCN)C(=O)N[C@@H](CCCNC(=N)N)C(=O)N[C@H](C(=O)N[C@H](C(=O)N[C@@H](CCC(N)=O)C(=O)N[C@@H](CCCNC(=N)N)C(=O)N[C@H](C(=O)N[C@@H](CCCCN)C(=O)N[C@@H](CC(=O)O)C(=O)N[C@@H](Cc1ccccc1)C(=O)N[C@@H](CC(C)C)C(=O)N[C@@H](CCCNC(=N)N)C(=O)N[C@@H](CC(N)=O)C(=O)N[C@@H](CC(C)C)C(=O)N[C@H](C(=O)N1CCC[C@H]1C(=O)N[C@@H](CCCNC(=N)N)C(=O)N[C@H](C(=O)N[C@@H](CCC(=O)O)C(=O)N[C@@H](CO)C(=O)O)[C@@H](C)O)C(C)C)[C@@H](C)CC)C(C)C)[C@@H](C)CC [LL-37, LLGDFFRKSK EKIGKEFKR1 VQRIKDFLRN LVPRTES] | within reported parameters | 67% and 90% and 95% | 19/28 and 27/30 and 39/41 | decreased in proportion to the concentration | At least one hour | at least one log lower | 25 µM | – | – | – | – | – | –
GLLRKGGEKIGEKLKKIGQKIKNFFQKLVPQPEQ (GLLRKGGEKIGEKLKKIGQKIKNFFQKLVPQPEQ) [CRAMP] | within reported parameters | – | – | decreased in proportion to the concentration | – | at least one log lower | 25 µM | concentration-dependent inhibition; also recorded: able to kill vaccinia virus | – | – | – | – | –
GLNGPDIYKGUYQFKSVEFD [Peptide 8044] | no antimicrobial activity; also recorded: did not exhibit antimicrobial activity; also recorded: ^aControl peptide 8044 did not possess antimicrobial activity against ML35p | – | – | – | – | – | – | did not inhibit virus replication; also recorded: no antiviral activity | did not have an effect on virion structure | *25 μM HNP-1 and control peptides did not alter virion structure | – | – | –
HBD-1 (DHYNCVSSGGQCLYSACPIFTKIQGTCYRGKAKCCK; ends and bridges not checked; cysteine pairing not given here; UniProt P60022 33-68, looked up) | – | – | – | – | – | – | – | did not inhibit viral replication | – | – | 16.02 µM and 16.03 ± 1.20 µM | did not inhibit vaccinia virus replication | –
HNP-1 | active against E. coli | – | – | – | – | – | – | did not inhibit virus replication; also recorded: did not inhibit viral replication | did not have an effect on virion structure | *25 μM HNP-1 and control peptides did not alter virion structure | – | did not inhibit vaccinia virus replication | 8.42 µM and 8.42 ± 0.43 µM
